This note sets out measurements from the Deep4Chem optical property database.

Molecules are shown by their SMILES.

The series can be described thus: solvent given as SMILES.

Consider `FC(F)(F)c1ccc(/C=C/c2nc(/C=C/c3ccc(N(c4ccccc4)c4ccccc4)cc3)cc(/C=C/c3ccc(N(c4ccccc4)c4ccccc4)cc3)n2)cc1`, for which the emission maximum worked out at 526 nm (in C1CCOC1); 600 nm (in CC#N); 567 nm (in CC(C)=O); 467 nm (in CCCCCCC); 599 nm (in CS(C)=O); 486 nm (in Cc1ccccc1). The compound further came in with an emission maximum (in ClCCl) of 554 nm.

On to `c1ccc(N(c2ccccc2)c2ccc(-c3nc4ccccc4n3-c3ccccc3)cc2)cc1`, for which the emission maximum (in CC#N) came to 444 nm.

Turning to `F[B-]1(F)OC(c2ccccc2)=CC(c2ccccc2)=[O+]1`, the emission maximum is, setting by setting: (in CC#N) 398 nm; (in ClC(Cl)(Cl)Cl) 389 nm.

Under “in ClC(Cl)Cl”, `CCCCCCCCCCCCOc1cc2c3cc(OCCCCCCCCCCCC)c(OCCCCCCCCCCCC)cc3c3c(cc(OCCCCCCCCCCCC)c4nc5cc(C#Cc6ccc(OCCCC)cc6)c(C#Cc6ccc(OCCCC)cc6)cc5nc43)c2cc1OCCCCCCCCCCCC` displayed an emission maximum of 661 nm.

For the compound `O=P1(c2ccccc2)c2ccc(N3c4ccccc4Oc4ccccc43)cc2-c2cc(N3c4ccccc4Oc4ccccc43)ccc21`, the emission maximum is on record as 535 nm (in Cc1ccccc1) and 551 nm (in c1ccc2c(c1)c1ccccc1n2-c1ccc(-c2ccc(-n3c4ccccc4c4ccccc43)cc2)cc1).

Compound `Cc1ccccc1CN(Cc1ccccc1C)c1nc(C#N)c(N(Cc2ccccc2C)Cc2ccccc2C)nc1C#N` gave an emission maximum (in ClC(Cl)Cl) of 582 nm.

For `Cc1ccc(/C2=c3\cc/c(o3)=C(\c3ccc(C)cc3)c3ccc([nH]3)-c3ccc4n3[P-](=O)(=O)[N+]3=C(C=CC3=C4c3cccs3)c3ccc2[nH]3)cc1`, the emission maximum (in ClC(Cl)Cl) is listed as 736 nm.

The compound `COC(=O)c1nc(-c2cccc3ccccc23)oc1C` had an emission maximum (in C1CCCCC1) of 340 nm, an emission maximum (in CC#N) of 343 nm, an emission maximum (in CCO) of 344 nm and an emission maximum (in CCOC(C)=O) of 342 nm.

Regarding `O=S1c2ccc(-c3c4ccccc4cc4ccccc34)cc2-c2cc(-c3c4ccccc4cc4ccccc34)ccc21`, the emission maximum by setting is: (in C1CCCCC1) 405.03 nm; (in CC#N) 508.48 nm; (in ClCCl) 471.15 nm.

Regarding `Oc1ccccc1/N=C/c1ccccc1Oc1ccccc1`, the emission maximum by setting is: (in C1CCCCC1) 413 nm; (in C1CCOC1) 412 nm; (in C1COCCO1) 410 nm; (in CC#N) 410 nm; (in CC(C)=O) 410 nm; (in CC(C)CO) 409 nm. Besides, the emission maximum (in CC(C)O) is reported as 406 nm; the emission maximum (in CCCCC) is listed as 425 nm; the emission maximum (in CCCCCCCCO) amounted to 414 nm; the emission maximum (in CCCCCCCO) worked out at 410 nm; the emission maximum (in CCCCCCO) turned out to be 410 nm; the emission maximum (in CCCCO) amounted to 395 nm. Besides, the emission maximum reads like this: (in CCCCOC(C)=O) 409 nm; (in CCCO) 410 nm; (in CCO) 408 nm; (in CCOC(C)=O) 400 nm; (in CCOCC) 420 nm; (in CN(C)C=O) 418 nm. This compound also returned an emission maximum (in CO) of 414 nm; an emission maximum (in CS(C)=O) of 410 nm; an emission maximum (in Cc1ccccc1) of 411 nm; an emission maximum (in Cc1ccccc1C) of 412 nm; an emission maximum (in ClC(Cl)Cl) of 410 nm; an emission maximum (in ClCCl) of 415 nm. The same compound showed an emission maximum (in N#Cc1ccccc1) of 410 nm, an emission maximum (in OCCO) of 415 nm and an emission maximum (in c1ccccc1) of 410 nm.

Where the note is “in ClC(Cl)Cl”, `N#CC1=CC=CC(C#N)=P1(c1ccccc1)c1ccccc1` registered an emission maximum of 491 nm.

`CCC1=C(C)C2=Cc3ccccc3B(O)N2C1=O` showed an emission maximum (in CC#N) of 411 nm; an emission maximum (in CCCCCC) of 405 nm; an emission maximum (in CO) of 411 nm; an emission maximum (in CS(C)=O) of 416 nm; an emission maximum (in ClC(Cl)Cl) of 418 nm.

For the setting “in C1CCCCC1”, `CCCC1(CCC)c2cc(-c3ccc4c(c3)C(CCC)(CCC)c3cc(-c5ccc6c(c5)C(CCC)(CCC)c5cc(C(C)(C)CC)ccc5-6)ccc3-4)ccc2-c2ccc(-c3ccc4c(c3)C(CCC)(CCC)c3cc(C(C)(C)CC)ccc3-4)cc21` registered an emission maximum of 407 nm.
